Source: article PMC3944389, “Differential Neuroprotective Effects of 5′-Deoxy-5′-Methylthioadenosine” (PLoS ONE, 2014)

Experiments:
[1] = tested on: co-culture of bovine-brain endothelial cells (BBECs) and newborn rat astrocytes; test: In vitro cell model of transport across the BBB; assay type: in vitro ADME
Description: A in vitro cell model of BBB permeability was established using a co-culture of bovine-brain endothelial cells (BBECs) and newborn rat astrocytes. The cells were first cultured in 24-well (Transwell^R) permeable supports with a surface area of 0.33 cm^2 and a pore size of 0.4 µm (Corning), the upper surface of which was coated with collagen type IV and fibronectin. The inserts were then placed upside down in a large petri dish, and 40 µL of a suspension (containing approximately 45,000 astrocytes) was placed on the bottom of each filter. The petri dish was incubated at 37°C for 1 h, and 40 µL of fresh DMEM+S was added to the bottom of each filter every 15 min. The inserts were then transferred back to the plate and incubated at 37°C in 5% CO2 for 3 d. Then, 2 h before seeding the BBECs, the medium was replaced by DMEM+S supplemented with 125 µg/mL heparin and 2 h later, the cells were seeded onto the inserts (45,000 cells per filter). The plate was incubated at 37°C in 5% CO2 for 3 more days, after which the medium was replaced by DMEM+S supplemented with cyclic adenosine monophosphate (cAMP) and RO-20-1724, and kept at 37°C in 5% CO2. On day 8 of the co-culture, the transendothelial electrical resistance (TEER) was measured to determine whether the system was ready for transport studies. To validate the maturity of the model, permeability assays with lucifer yellow (LY) were performed in parallel as a marker of the integrity of the in vitro barrier. During the permeability assay, the samples were co-incubated with LY (20 µM) to assess the integrity of the cellular monolayer during the assay.

[2] = tested on: rat mixed astrocyte-neuron cultures; test: NMDA-induced caspase 3 activation in mixed astrocyte-neuron cultures; assay type: cell-based; settings: pre- or co-treatment; MTA 250 µM, MK-801 10 µM; 300 µM NMDA
Description: Finally, to prepare neuron-astrocyte co-cultures, neurons were resuspended in B27 Neurobasal medium plus 10% of foetal bovine serum (FBS) and then seeded onto a monolayer of astrocytes in 24-well plates at a density of 1–2×10^5 cells per well, the astrocytes having been prepared beforehand, as described elsewhere. One day later, the medium was replaced with B27-Neurobasal plus 10% FBS medium, and the cells were maintained at 37°C in 5% CO2. The cultures were used 8–9 days after plating. Neurons and astrocytes were identified with antibodies against microtubule-associated protein-2 and GFAP, respectively.
(§1) To assay N-methyl–D-aspartate (NMDA) excitotoxicity, primary cultures were seeded in 24-well plates at 15×10^4 cells/well, cultured for 7 days in vitro, and treated for different times with the vehicle alone (dimethyl sulfoxide (DMSO) 1%), NMDA (300 µM), NMDA (300 µM) + MTA (250 µM) or NMDA (300 µM) + MK-801, a NMDA receptor antagonist (10 µM). […] Caspase 3 activity was measured in these lysates one hour after the NMDA addition.
(§2) Cortical neurons, or mixed cortical neurons and glia, were seeded in poly-L-lysine-coated 6-well culture plates during 7 days in vitro before start the set of experiments. […] The extracts were then centrifuged at 5,000×g for 10 min at 4°C and the protein content was determined by the BCA protein assay. […]

[3] = tested on: rat pure primary neuronal cultures; test: NMDA-induced caspase 3 activation in pure primary neuronal cultures; assay type: cell-based; settings: 300 µM NMDA
Description: Primary cultures of rat brain cortical neurons were prepared essentially as described previously. The fronto-lateral cortical lobes were dissected out of Sprague-Dawley embryonic day 17 fetuses and they were dissociated mechanically in Hanks' balanced solution. After centrifugation at 800×g for 5 min, the cells were resuspended in serum-free Neurobasal medium (GIBCO) supplemented with B27 (GIBCO) containing 2 mM L-glutamine, penicillin (20 units/ml) and streptomycin (5 µg/ml), and they were plated onto poly-L-lysine-coated 24-well culture plates or on poly-L-lysine-coated 6-well culture plates. […]
as §1, §2

5′-deoxy-5′-methylthioadenosine [MTA]
Pe x 10^−6 (cm/s) [1]: 4.5 x 10^−6 cm/s
effective permeability coefficient (Pe) [1]: 4.5e-06 cm/s
caspase 3 activation induced by NMDA [2]: reverted to basal levels
survival of neurons exposed to NMDA (caspase 3 activity) ([3]; co-treatment with MTA (100, 250 and 500 µM), 1 h): not enhanced
caspase 3 activity induced by NMDA ([3]; pre-treatment 15 min before NMDA, MTA 100, 250 and 500 µM): decreased significantly
